These results are taken from patent publication US10596296B2, “Heparan sulphates” (Agency for Science, Technology and Research, priority 2014, dated 2020).

In one data set the target is T1, TGF-β1 (Homo sapiens, UniProt P01137).
T1 construct: full length mature TGF-β1 is 112 amino acids in length
In words: Differential scanning fluorimetry (DSF) of TGF-β1. The format is binding. As for the experimental part: DSF was performed on a 7500 Fast Real PCR System (software version 1.4, Applied Biosystems), as described previously (34,35). TGF-β1 (2.5 μM) was tested with or without heparin (25 μM). To facilitate the melting of TGF-β1, 10 mM of dithiothreitol (DTT) was added to the reaction mix. Experiments were run as previously described (34). First derivatives of the melting curves were calculated using Origin 7 (OriginLab Corp.) to determine the melting temperature of TGF-β1 under the various conditions.

Data set [1] concerns TGF-β1 signaling (pSMAD2, pSMAD3) in hMSCs. In words: Western blotting of pSMAD2/pSMAD3 in hMSCs treated with TGF-β1 and GAG. The format is cell-based, human. To be noted: 6, 12, 24 and 48 h. The method, then:
Primary hMSCs (Lonza) were isolated from the bone marrow mononuclear cells of a young healthy adult human donor by plastic adherence and characterized as previously described (30,31). The adherent cells were maintained in a basal media consisting of DMEM-low glucose (1000 mg/l, DMEM-LG) supplemented with 10% fetal calf serum, 100 U/ml penicillin, 100 μg/ml streptomycin and 2 mM L-glutamine, and cultured under standard conditions at 37° C. and 5% CO2 in a humidified atmosphere. Media replacement was every three days. Cells were detached with 0.125% trypsin/Versene (pH 7.0) upon reaching 75-80% confluence, and re-plated at a density of 3,000 cells/cm^2 under the same culture conditions. All experiments were carried out with cells at passage 5.
Human MSCs were cultured in 6-well plates in basal media for 24 h at a density of 10,000 cells/cm^2. TGF-β1 treatments were then prepared at either 1 ng/ml or 5 ng/ml alone or in the presence of either 10 μg/ml or 40 μg/ml of full length heparin, or 1 ng/ml of TGF-β1 with 10 μg/ml size-fractionated or selectively desulfated heparin, HS^PM, HS16+ or HS16−, and incubated at room temperature for 10 min before being added to the cells. Latent TGF-β1 (LTGF-β1) treatments were similarly prepared at 3.3 ng/ml alone or with 10 μg/ml of the various GAGs described above. For inhibitor studies, the cells were pre-treated for 30 min with 10 μM SB431542 (Sigma-Aldrich) or DMSO before treatment with TGF-β1. […] Samples were then immunoblotted with antibodies against SMAD2/3 (#3102, Cell Signaling), phosphorylated SMAD2 (pSMAD2, #3108, Cell Signaling), phosphorylated SMAD3 (pSMAD3, #9520, Cell Signaling) and actin (MAB1501R, Millipore). Densitometry was carried out using Quantity One software (version 4.6.6, Bio-Rad).
For orientation: In western blotting, separated proteins are transferred to a membrane and probed.

The test system of data set [2] is chondrogenic differentiation of hMSCs. The data set can be described thus: qPCR of chondrogenic micromass pellets (Example 2). The format is cell-based, human. The method, then:
Total RNA was isolated from chondrogenic micromass pellets using TRIZOL reagent (Life Technologies, CA, USA) according to the manufacturer's protocol. Reverse transcription was carried out on 1 μg RNA using the SuperScript® VILO™ cDNA Synthesis Kit (Life Technologies) following the manufacturer's instructions, with the incubation at 42° C. being carried out for 2 h instead of 1 h. Each qPCR contained 40 ng cDNA, 1 μL TaqMan® primer-probe mix per gene, and 10 μL Taqman® Fast Universal PCR Master Mix (Life Technologies) in a final volume of 20 μL. Thermal cycling conditions were 95° C. for 20 s, followed by 45 cycles of 95° C. for 1 s and 60° C. for 20 s. Each qPCR was run in duplicate and gene expression was normalised to HPRT1 expression to obtain the ΔCt value. The average value of biological triplicates was taken. Chondrogenic micromass pellets cultured in media without GAG or TGF-β1 were used as controls (ΔΔCt). Relative expression levels for each primer set were expressed as fold changes by the 2-ΔΔCt method [Livak, K. J. and T. D. Schmittgen, Analysis of Relative Gene Expression Data Using Real-Time Quantitative PCR and the 2-ΔΔCT Method. Methods, 2001. 25(4): p. 402-408]. The following TaqMan® primer-probe assays (Life technologies) were used:
(§1) In order to assess the effects of HS16+ve on the chondrogenic differentiation of hMSCs in vitro, it was first necessary to establish the effects of TGF-β1 alone. Chondrogenic differentiation was carried out using a modified micromass culture system. [Zhang, L., et al., Chondrogenic differentiation of human mesenchymal stem cells: a comparison between micromass and pellet culture systems. Biotechnol Lett, 2010. 32(9): p. 1339-1346.]. Briefly, passage 4 hMSCs were harvested and resuspended in chemically defined chondrogenic media (PT-3003, Lonza, MD, USA) at 2×10^7 cells/mL. Droplets of 12.5 μL were then seeded into the middle of each well in a 24-well plate and left to adhere at 37° C. for 2 h, after which, 500 μL of chondrogenic media supplemented with either 1 or 10 ng/mL of TGF-β1 (100-210, PeproTech) alone or with either 5 or 10 μg/mL of heparin (Sigma-Aldrich), porcine mucosal HS (HSPM) (Celsus laboratories), HS16+ve or HS16-ve was added to each well. The cell droplets coalesced into spherical masses after 24 h. Media was changed every 3 days and the micromasses harvested on days 3, 7, 14 and 21.
Next, hMSCs were differentiated for 21 days in the presence of 1 ng/mL TGF-β1 alone (1 TGF-β1) or in combination with 10 μg/mL of GAG (heparin, HSPM, HS16+ve or HS16−ve) or with 10 ng/mL TGF-β1 (10 TGF-β1) as a positive control.

Data set [3] shares this test system. The data set can be described thus: Alcian blue staining of chondrogenic micromass pellets. The format is cell-based, human. The method, then: as §1
Data set [4] has the same test system. In words: Wet weight of chondrogenic micromass pellets. Type of data set: cell-based, human. To be noted: 10 ng/mL TGF-β1 vs control; days 3, 7, 14 and 21. The method, then: as §1
Wet weights of the resulting control (Ctrl) and TGF-β1-treated (10 ng/mL) (TGF-β1) micromass pellets were taken at days 3, 7, 14 and 21 (FIG. 15).

Where [5] appears, read: 10 ng/mL TGF-β1, days 3, 7, 14 and 21.

“Also recorded” adds a separate entry of the source.

T1 sequence (P01137 279-390 limits assumed): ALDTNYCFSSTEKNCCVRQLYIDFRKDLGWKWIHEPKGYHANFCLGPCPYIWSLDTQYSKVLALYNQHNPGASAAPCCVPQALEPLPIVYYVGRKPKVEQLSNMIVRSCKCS

Consider “TGF-β1: transforming growth factor-β1 protein (PeproTech)”, for which the “melting temperature of TGF-β1” value in the data set with TGF-β1 (with 10 mM DTT, without heparin) stood at 44 °C. Moreover, in the data set with TGF-β1 (without DTT), the “melting temperature of TGF-β1 alone” value came out at 66 °C. Besides, in data set [1] (1 ng/mL TGF-β1), the pSMAD2 signal entry is “quite intense at 6 h post treatment, and started to subside from 12 h onwards”. In data set [1] (5 ng/mL and 10 ng/mL TGF-β1), the pSMAD2 signal result was “remain saturated across all the time points tested” and the pSMAD3 signal result was “returned to background levels by 24 h”. Besides, in data set [2] (10 ng/mL TGF-β1), the “Type II collagen transcripts” value was “only detectable in TGF-β1-treated pellets and undifferentiated hMSCs”; the “type X collagen transcripts relative to control pellets” value is reported as “extremely high levels”. Moreover, in data set [2] (setting [5]), the “COMP expression relative to untreated control pellets” value is on record as “increased expression” and the “SOX9 expression relative to untreated control pellets” value is reported as “increased expression”. Also, in data set [2] (10 ng/mL TGF-β1, days 7, 14 and 21), the “aggrecan expression relative to untreated control pellets” value is given as “increased expression”. Moreover, the “COMP expression, high (10 ng/mL) TGF-β1 relative to low dose TGF-β1 alone” value in data set [2] (21 days) was “did not significantly alter COMP expression”. For the same substance, the “type X collagen expression, high TGF-β1 relative to low TGF-β1” value in data set [2] (day 21) is reported as “significant increase”. For the same substance, in data set [3] (21 days), the “GAG production by Alcian blue staining, 10 ng/mL vs 1 ng/mL TGF-β1” value is “increase in GAG production and deposition; also recorded: modest increase in GAG production”. For the same substance, in data set [3] (day 21, 10 ng/mL TGF-β1), the “GAG content by Alcian blue staining vs control pellets” value is listed as “more GAGs”. For the same substance, the “wet weight of micromass pellets over time” value in data set [4] is given as “weight loss was less pronounced”.
